In this assay the target is T1, hROCK-2 (Homo sapiens, UniProt O75116).
T1 construct: purchased Upstate
The experiment in a line: ROCK-2 Assay (33P-ATP FlashPlate kinase assay, biotinylated S6 peptide). To be noted: hROCK-2 0.8 nM, 5 μM ATP, 1.5 μM biotinylated S6 peptide, room temperature, 60 min. It is filed as biochemical. The method, then:
The reaction is stopped by addition of 150 μl of 0.1 M EDTA in Dulbecco's PBS. 170 μl from each well are loaded onto a FlashPlate (PerkinElmer) and incubated at room temperature for 30 min.

Each structure is given as a SMILES string.

T1 sequence (O75116 whole entry): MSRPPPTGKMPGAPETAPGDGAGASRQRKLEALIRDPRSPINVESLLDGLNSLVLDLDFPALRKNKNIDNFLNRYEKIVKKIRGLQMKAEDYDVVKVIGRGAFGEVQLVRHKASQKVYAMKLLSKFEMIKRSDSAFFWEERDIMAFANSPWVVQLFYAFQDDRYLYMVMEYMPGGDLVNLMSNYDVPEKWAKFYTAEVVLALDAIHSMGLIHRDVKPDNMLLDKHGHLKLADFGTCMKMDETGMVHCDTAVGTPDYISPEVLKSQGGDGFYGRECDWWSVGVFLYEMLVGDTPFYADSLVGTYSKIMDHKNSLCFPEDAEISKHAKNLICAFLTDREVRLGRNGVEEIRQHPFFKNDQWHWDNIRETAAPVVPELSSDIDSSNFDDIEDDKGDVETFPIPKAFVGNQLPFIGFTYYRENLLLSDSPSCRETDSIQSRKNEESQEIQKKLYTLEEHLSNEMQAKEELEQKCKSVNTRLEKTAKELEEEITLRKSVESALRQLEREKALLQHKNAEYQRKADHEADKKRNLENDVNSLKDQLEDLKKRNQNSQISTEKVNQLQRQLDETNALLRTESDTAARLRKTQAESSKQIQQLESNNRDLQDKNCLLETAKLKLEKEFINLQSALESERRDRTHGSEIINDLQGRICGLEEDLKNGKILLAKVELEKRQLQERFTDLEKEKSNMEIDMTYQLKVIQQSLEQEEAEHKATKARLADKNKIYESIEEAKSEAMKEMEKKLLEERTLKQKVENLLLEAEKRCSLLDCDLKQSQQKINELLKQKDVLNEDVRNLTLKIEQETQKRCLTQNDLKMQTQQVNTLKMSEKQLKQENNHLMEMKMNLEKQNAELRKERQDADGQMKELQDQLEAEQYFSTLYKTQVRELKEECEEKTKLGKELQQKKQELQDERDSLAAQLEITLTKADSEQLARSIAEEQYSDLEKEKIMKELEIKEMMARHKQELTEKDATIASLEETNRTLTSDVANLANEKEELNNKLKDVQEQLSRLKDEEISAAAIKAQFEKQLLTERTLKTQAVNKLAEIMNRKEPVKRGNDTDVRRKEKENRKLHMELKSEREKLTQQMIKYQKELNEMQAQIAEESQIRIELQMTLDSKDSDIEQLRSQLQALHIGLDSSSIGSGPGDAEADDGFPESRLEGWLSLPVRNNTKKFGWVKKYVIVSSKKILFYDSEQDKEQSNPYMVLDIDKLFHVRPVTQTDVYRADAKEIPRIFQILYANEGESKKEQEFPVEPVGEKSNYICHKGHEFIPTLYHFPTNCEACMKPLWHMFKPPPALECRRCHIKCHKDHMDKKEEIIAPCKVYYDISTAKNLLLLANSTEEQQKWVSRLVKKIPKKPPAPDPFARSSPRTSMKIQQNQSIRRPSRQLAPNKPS

For orientation: Ki means a measure of affinity in units of concentration, obtained from inhibition or displacement. A higher Ki goes with lower affinity. For the compound `O=C(N[C@H](CCO)c1ccccc1)c1ccc(-c2ccncc2)cc1` [Example 2, N-[(1R)-3-hydroxy-1-phenylpropyl]-4-pyridin-4-ylbenzamide], the Ki was less than 50 nM. Under `CC(C)(C)OC(=O)NCC(NC(=O)c1ccc(-c2ccncc2)cc1)c1ccccc1` (centres unmarked) [Example 3, tert-Butyl-{2-phenyl-2-[(4-pyridin-4-ylbenzoyl)amino]ethyl}carbamate] stands 50 to 500 nM; under `O=C(N[C@H](CO)Cc1ccccc1)c1ccc(-c2ccncc2)cc1` [Example 7, N-[(1S)-1-benzyl-2-hydroxyethyl]-4-pyridin-4-ylbenzamide], less than 50 nM. In turn, `O=C(N[C@H](CO)Cc1c[nH]c2ccccc12)c1ccc(-c2ccncc2)cc1` [Example 14, N-[(1S)-2-hydroxy-1-(1H-indol-3-ylmethyl)ethyl]-4-pyridin-4-ylbenzamide] had an inhibition constant Ki of 50 to 500 nM. The compound `O=C(N[C@H](CO)Cc1ccc(O)cc1)c1ccc(-c2ccncc2)cc1` [Example 15, N-[(1S)-2-hydroxy-1-(4-hydroxybenzyl)ethyl]-4-pyridin-4-ylbenzamide] gave a Ki of 50 to 500 nM. Next, `COCC(Cc1ccccc1)NC(=O)c1ccc(-c2ccncc2)cc1` (centres unmarked) [Example 16, N-(1-benzyl-2-methoxyethyl)-4-pyridin-4-ylbenzamide]: 50 to 500 nM. `O=C(N[C@@H](Cc1ccccc1)CN1CCCC1)c1ccc(-c2ccncc2)cc1` [Example 28, N-[(1S)-1-benzyl-2-pyrrolidin-1-ylethyl]-4-pyridin-4-ylbenzamide]: the Ki is less than 50 nM. Next, `O=C(N[C@@H](c1ccccc1)[C@H](O)c1ccccc1)c1ccc(-c2ccncc2)cc1` [Example 29, N-[(1S,2R)-2-hydroxy-1,2-diphenylethyl]-4-pyridin-4-ylbenzamide]: 50 to 500 nM; `CN(C)CC(NC(=O)c1ccc(-c2ccncc2)cc1)c1ccccc1` (centres unmarked) [Example 30, N-[2-(dimethylamino)-1-phenylethyl]-4-pyridin-4-ylbenzamide]: less than 50 nM; `O=C(NC(CN1CCCC1)c1ccccc1)c1ccc(-c2ccncc2)cc1` (centres unmarked) [Example 31, N-(1-phenyl-2-pyrrolidin-1-ylethyl)-4-pyridin-4-ylbenzamide]: less than 50 nM.

Take `O=C(NC(CN1CCOCC1)c1ccccc1)c1ccc(-c2ccncc2)cc1` (centres unmarked) [Example 32, N-(2-morpholin-4-yl-1-phenylethyl)-4-pyridin-4-ylbenzamide]: the Ki is less than 50 nM. As to `CN1CCN(CC(NC(=O)c2ccc(-c3ccncc3)cc2)c2ccccc2)CC1` (centres unmarked) [Example 33, N-[2-(4-methylpiperazin-1-yl)-1-phenylethyl]-4-pyridin-4-ylbenzamide], the Ki lay in the range of 50 to 500 nM. Under `O=C(NC(c1ccccc1)[C@@H](O)c1ccccc1)c1ccc(-c2ccncc2)cc1` (stereo partly drawn) [Example 34, N-[(2S)-2-hydroxy-1,2-diphenylethyl]-4-pyridin-4-ylbenzamide] stands 50 to 500 nM. Under `O=C(NC(Cn1ccnc1)c1ccccc1)c1ccc(-c2ccncc2)cc1` (centres unmarked) [Example 35, N-[2-(1H-imidazol-1-yl)-1-phenylethyl]-4-pyridin-4-ylbenzamide] stands less than 50 nM. With `O=C(NC(CN1CCCCC1)c1ccccc1)c1ccc(-c2ccncc2)cc1` (centres unmarked) [Example 36, N-(1-phenyl-2-piperidin-1-ylethyl)-4-pyridin-4-ylbenzamide], the inhibitory constant (Ki) was less than 50 nM. Under `O=C(NC(CO)c1cccnc1)c1ccc(-c2ccncc2)cc1` (centres unmarked) [Example 39, N-(2-hydroxy-1-pyridin-3-ylethyl)-4-pyridin-4-ylbenzamide] stands 50 to 500 nM; under `Cc1ccc(C(CO)NC(=O)c2ccc(-c3ccncc3)cc2)c(C)c1` (centres unmarked) [Example 40, N-[1-(2,4-dimethylphenyl)-2-hydroxyethyl]-4-pyridin-4-ylbenzamide], 50 to 500 nM; under `Cc1ccc(C(CO)NC(=O)c2ccc(-c3ccncc3)cc2)cc1C` (centres unmarked) [Example 41, N-[1-(3,4-dimethylphenyl)-2-hydroxyethyl]-4-pyridin-4-ylbenzamide], less than 50 nM.

In turn, `COc1ccc(C(CN)NC(=O)c2ccc(-c3ccncc3)cc2)cc1` (centres unmarked) [Example 44, N-[2-amino-1-(4-methoxyphenyl)ethyl]-4-pyridin-4-ylbenzamide] registered a Ki of 50 to 500 nM. Next, `Cc1ccc(C(CN)NC(=O)c2ccc(-c3ccncc3)cc2)cc1` (centres unmarked) [Example 46, N-[2-amino-1-(4-methylphenyl)ethyl]-4-pyridin-4-ylbenzamide]: less than 50 nM; `C[C@@H](NC(=O)c1ccc(-c2ccncc2)cc1)c1cccc2ccccc12` [Example 47, N-[(1R)-1-(1-naphthyl)ethyl]-4-pyridin-4-ylbenzamide]: less than 50 nM. Compound `O=C(NC(Cc1ccccc1)c1ccccc1)c1ccc(-c2ccncc2)cc1` (centres unmarked) [Example 48, N-(1,2-diphenylethyl)-4-pyridin-4-ylbenzamide] displayed an inhibitory constant (Ki) of 50 to 500 nM. As to `O=C(NC(c1ccccc1)c1ccc(Cl)cc1)c1ccc(-c2ccncc2)cc1` (centres unmarked) [Example 49, N-[(4-chlorophenyl)(phenyl)methyl]-4-pyridin-4-ylbenzamide], the Ki lay in the range of 50 to 500 nM. Next, `CC(NC(=O)c1ccc(-c2ccncc2)cc1)c1ccco1` (centres unmarked) [Example 53]: 50 to 500 nM; `Cc1ccc(C(C)NC(=O)c2ccc(-c3ccncc3)cc2)o1` (centres unmarked) [Example 71]: 50 to 500 nM; `CC(NC(=O)c1ccc(-c2ccncc2)cc1)c1cccs1` (centres unmarked) [Example 72, 4-pyridin-4-yl-N—O-(2-thienyl)ethypenzamide]: less than 50 nM. Next, `CCC(NC(=O)c1ccc(-c2ccncc2)cc1)c1ccccc1` (centres unmarked) [Example 75, N-(1-phenylpropyl)-4-pyridin-4-ylbenzamide]: less than 50 nM; `CC(NC(=O)c1ccc(-c2ccncc2)cc1)c1ccccn1` (centres unmarked) [Example 76, 4-pyridin-4-yl-N-(1-pyridin-2-ylethyl)benzamide]: 50 to 500 nM; `CC(NC(=O)c1ccc(-c2ccncc2)cc1)c1cccnc1` (centres unmarked) [Example 79, 4-pyridin-4-yl-N-(1-pyridin-3-ylethyl)benzamide]: 50 to 500 nM. Take `C[C@@H](NC(=O)c1ccc(-c2ccncc2)cc1)c1ccccn1` [Example 80, 4-pyridin-4-yl-N-[(1R)-1-pyridin-2-ylethyl]benzamide]: the Ki fell in the range of 50 to 500 nM. Next, `Cc1ccc([C@@H](C)NC(=O)c2ccc(-c3ccncc3)cc2)cc1` [Example 82, N-[(1R)-1-(4-methylphenyl)ethyl]-4-pyridin-4-ylbenzamide]: 50 to 500 nM. Under `C[C@@H](NC(=O)c1ccc(-c2ccncc2)cc1)c1ccc(F)cc1` [Example 85, N-[(1R)-1-(4-fluorophenyl)ethyl]-4-pyridin-4-ylbenzamide] stands less than 50 nM. Under `C[C@@H](NC(=O)c1ccc(-c2ccncc2)cc1)c1ccccc1C(F)(F)F` [Example 86, 4-pyridin-4-yl-N-{(1R)-1-[2-(trifluoromethyl)phenyl]ethyl}benzamide] stands 50 to 500 nM. The compound `C[C@@H](NC(=O)c1ccc(-c2ccncc2)cc1)c1cccc(C(F)(F)F)c1` [Example 87, 4-pyridin-4-yl-N-{(1R)-1-[3-(trifluoromethyl)phenyl]ethyl}benzamide] returned an inhibition constant Ki of less than 50 nM. Next, `C[C@@H](NC(=O)c1ccc(-c2ccncc2)cc1)c1ccccc1F` [Example 88, N-[(1R)-1-(2-fluorophenyl)ethyl]-4-pyridin-4-ylbenzamide]: less than 50 nM. In the case of `C[C@@H](NC(=O)c1ccc(-c2ccncc2)cc1)c1cc(C(F)(F)F)cc(C(F)(F)F)c1` [Example 89, N-{(1R)-1-[3,5-bis(trifluoromethyl)phenyl]ethyl}-4-pyridin-4-ylbenzamide], the inhibitory constant (Ki) was 50 to 500 nM. Next, `C[C@@H](NC(=O)c1ccc(-c2ccncc2)cc1)c1ccc(Cl)cc1` [Example 90, N-[(1R)-1-(4-chlorophenyl)ethyl]-4-pyridin-4-ylbenzamide]: less than 50 nM; `C[C@@H](NC(=O)c1ccc(-c2ccncc2)cc1)c1ccc2ccccc2c1` [Example 91, N-[(1R)-1-(2-naphthyl)ethyl]-4-pyridin-4-ylbenzamide]: less than 50 nM. Regarding `COc1cc(-c2ccncc2)ccc1C(=O)N[C@H](CCO)c1ccccc1` [Example 94, N—((R)-3-hydroxy-1-phenyl-propyl)-2-methoxy-4-pyridin-4-yl-benzamide], the Ki is less than 50 nM. Turning to `COc1cccc([C@@H](C)NC(=O)c2ccc(-c3ccncc3)cc2C)c1` [Example 96, N—[(R)-1-(3-methoxy-phenyl)-ethyl]-2-methyl-4-pyridin-4-yl-benzamide], the inhibition constant (Ki) is less than 50 nM.

Regarding `COc1cccc([C@@H](C)NC(=O)c2ccc(-c3ccncc3)c(OC)c2)c1` [Example 97, 3-methoxy-N—[(R)-1-(3-methoxy-phenyl)-ethyl]-4-pyridin-4-yl-benzamide], the Ki was less than 50 nM.

In the case of `COc1cccc([C@@H](C)NC(=O)c2ccc(-c3ccncc3C)cc2)c1` [Example 101, N—[(R)-1-(3-Methoxy-phenyl)-ethyl]-4-(3-methyl-pyridin-4-yl)-benzamide], the Ki was less than 50 nM. Under `COc1cccc([C@H](C)NC(=O)c2ccc(-c3ccncc3)c(C)c2)c1` [Example 102, N—[(S)-1-(3-methoxy-phenyl)-ethyl]-3-methyl-4-pyridin-4-yl-benzamide] stands less than 50 nM. Take `COc1cccc([C@@H](C)NC(=O)c2ccc(-c3ccncc3)cc2OC)c1` [Example 103, 2-methoxy-N—[(R)-1-(3-methoxy-phenyl)-ethyl]-4-pyridin-4-yl-benzamide]: the Ki was less than 50 nM. As to `COc1cc(-c2ccncc2)ccc1C(=O)N[C@H](C)c1cccc2ccccc12` [Example 106, 2-methoxy-N—((R)-1-naphthalen-1-yl-ethyl)-4-pyridin-4-yl-benzamide], the Ki was less than 50 nM. Next, `COc1cc(-c2ccncc2)ccc1C(=O)N[C@H](C)c1ccc2ccccc2c1` [Example 107, 2-methoxy-N—((R)-1-naphthalen-2-yl-ethyl)-4-pyridin-4-yl-benzamide]: 50 to 500 nM. For `COc1cc(-c2ccncc2)ccc1C(=O)N[C@H](C)c1ccccc1` [Example 112, 2-methoxy-N—((R)-1-phenyl-ethyl)-4-pyridin-4-yl-benzamide], the inhibitory constant (Ki) was less than 50 nM.
